According to PubChem BioAssay AID328 (DTP/NCI, 2004):
Values joined by “and” are separate entries in the source; they are usually repeats but may differ in a detail not shown here. Identical values can stand only once. Toxic doses and inconclusive results are not listed. The calls were made as follows: active = survival T/C of 150% or more; inactive = T/C below 125% in these data.

Test system: BDF1 mice, P388 leukemia ip, median survival T/C
Experiment: NCI In Vivo Anticancer Drug Screen. Data for tumor model P388 Leukemia (intraperitoneal) in B6D2F1 (BDF1) mice
Settings: endpoint: median survival time, higher = longer survival
In short: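 Transplantable tumour in mice; compound vs vehicle dosing; survival scored; ratio of treated to control reported.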

[1] = dose: 100.0 mg/kg/injection, schedule: Q01DX009 (ip), vehicle: saline
[2] = dose: 200.0 mg/kg/injection, schedule: Q01DX009 (ip), vehicle: saline
[3] = dose: 400.0 mg/kg/injection, schedule: Q01DX009 (ip), vehicle: saline
[4] = dose: 25.0 mg/kg/injection, schedule: Q01DX009 (ip), vehicle: saline with Tween-80
[5] = dose: 50.0 mg/kg/injection, schedule: Q01DX009 (ip), vehicle: saline with Tween-80
[6] = dose: 50.0 mg/kg/injection, schedule: Q01DX009 (ip), vehicle: saline
[7] = dose: 150.0 mg/kg/injection, schedule: Q01DX009 (ip), vehicle: saline
[8] = dose: 100.0 mg/kg/injection, schedule: Q04DX003 (ip), vehicle: Klucel (hydroxypropylcellulose) (HPC)
[9] = dose: 200.0 mg/kg/injection, schedule: Q04DX003 (ip), vehicle: Klucel (hydroxypropylcellulose) (HPC)
[10] = dose: 25.0 mg/kg/injection, schedule: Q01DX009 (ip), vehicle: saline
[11] = dose: 100.0 mg/kg/injection, schedule: Q04DX003 (ip), vehicle: saline with Tween-80
[12] = dose: 200.0 mg/kg/injection, schedule: Q04DX003 (ip), vehicle: saline with Tween-80
[13] = dose: 400.0 mg/kg/injection, schedule: Q04DX003 (ip), vehicle: saline with Tween-80
[14] = dose: 100.0 mg/kg/injection, schedule: Q01DX009 (ip), vehicle: saline with Tween-80

Measured: T/C

CC[N+]1(CC)CCOC(=O)C1
inactive: [1] 92 % of control | [2] 92 % of control | [3] 92 % of control

O=C1C=C(NCc2ccccc2)CCC1
inactive: [4] 108 % of control | [5] 100 % of control | [6] 96 % of control | [2] 105 % of control

NC(=O)NOCC1NC(=O)C(CONC(N)=O)NC1=O (stereo unspecified)
inactive: [1] 116 % of control | [3] 105 % of control

CC(C)N1c2c(nc(N)[nH]c2=O)NCC1CNc1ccc(C(=O)NC(CCC(=O)O)C(=O)O)cc1 (stereo unspecified)
inactive: [1] 105 % of control | [7] 90 % of control | [2] 97 % of control | dose: 300.0 mg/kg/injection, schedule: Q01DX009 (ip), vehicle: saline 93 % of control | [3] 110 % of control

CCOC(=O)N1C=Cn2c(cnc2C)C1O (stereo unspecified)
inactive: [6] 105 % of control | dose: 50.0 mg/kg/injection, schedule: Q01DX009 (ip), vehicle: water 110 % of control | [1] 97 % of control | dose: 100.0 mg/kg/injection, schedule: Q01DX009 (ip), vehicle: water 103 % of control | dose: 100.0 mg/kg/injection, schedule: Q04DX003 (ip), vehicle: saline 100 % of control | dose: 100.0 mg/kg/injection, schedule: Q04DX003 (ip), vehicle: water 96 % of control | dose: 200.0 mg/kg/injection, schedule: Q01DX009 (ip), vehicle: water 94 % of control | dose: 200.0 mg/kg/injection, schedule: Q04DX003 (ip), vehicle: saline 102 % of control | dose: 200.0 mg/kg/injection, schedule: Q04DX003 (ip), vehicle: water 96 % of control | dose: 400.0 mg/kg/injection, schedule: Q01DX009 (ip), vehicle: water 94 % of control | dose: 400.0 mg/kg/injection, schedule: Q04DX003 (ip), vehicle: saline 93 % of control | dose: 400.0 mg/kg/injection, schedule: Q04DX003 (ip), vehicle: water 88 % of control

CC1(C)CC(=O)CC(C)(C)N1O
inactive: [8] 100 % of control | [9] 100 % of control | dose: 400.0 mg/kg/injection, schedule: Q04DX003 (ip), vehicle: Klucel (hydroxypropylcellulose) (HPC) 104 % of control

C=CCNC(=O)C(Br)(CC)CC
inactive: dose: 12.5 mg/kg/injection, schedule: Q01DX009 (ip), vehicle: saline 100 % of control | [10] 100 % of control | [6] 88 % of control and 100 % of control

CC(=O)Oc1cc(OC(C)=O)c2c(ccc3ccccc32)c1
inactive: [11] 93 % of control | [12] 97 % of control | [13] 93 % of control

O=c1[nH]cnc2nc(Br)[nH]c12
inactive: [5] 100 % of control | [14] 101 % of control | dose: 200.0 mg/kg/injection, schedule: Q01DX009 (ip), vehicle: saline with Tween-80 93 % of control | dose: 400.0 mg/kg/injection, schedule: Q01DX009 (ip), vehicle: saline with Tween-80 101 % of control

CC(=O)O[C@H]1CC[C@H]2[C@@H]3CCC4=CC(=O)CC[C@]4(C)[C@H]3[C@H](OC(C)=O)C[C@]12C
inactive: [11] 100 % of control | [12] 95 % of control | [13] 109 % of control

CC(=O)CC(=O)C(F)(F)F.CC(=O)CC(=O)C(F)(F)F.[O]=[V]
inactive: dose: 3.8 mg/kg/injection, schedule: Q01DX009 (ip), vehicle: Klucel (hydroxypropylcellulose) (HPC) 106 % of control | dose: 7.5 mg/kg/injection, schedule: Q01DX009 (ip), vehicle: Klucel (hydroxypropylcellulose) (HPC) 91 % of control

CC1(C)C(O)(C#N)C(C)(C)C1(O)C#N (stereo unspecified)
inactive: dose: 3.13 mg/kg/injection, schedule: Q04DX003 (ip), vehicle: saline 100 % of control | dose: 6.25 mg/kg/injection, schedule: Q04DX003 (ip), vehicle: saline 109 % of control | dose: 12.5 mg/kg/injection, schedule: Q04DX003 (ip), vehicle: saline 95 % of control

COc1cc(NS(C)(=O)=O)ccc1NS(C)(=O)=O
inactive: dose: 100.0 mg/kg/injection, schedule: Q01DX009 (ip), vehicle: Klucel (hydroxypropylcellulose) (HPC) 87 % of control | dose: 200.0 mg/kg/injection, schedule: Q01DX009 (ip), vehicle: Klucel (hydroxypropylcellulose) (HPC) 87 % of control | dose: 400.0 mg/kg/injection, schedule: Q01DX009 (ip), vehicle: Klucel (hydroxypropylcellulose) (HPC) 87 % of control

O=C(O)CC(SC(c1ccccc1)(c1ccccc1)c1ccccc1)C(=O)O (stereo unspecified)
inactive: dose: 50.0 mg/kg/injection, schedule: Q04DX003 (ip), vehicle: Klucel (hydroxypropylcellulose) (HPC) 86 % of control | [8] 86 % of control | [9] 95 % of control

CCC/C=C/C=C/C1CC(O)C(O)C(=O)C1CO (stereo unspecified)
inactive: dose: 12.5 mg/kg/injection, schedule: Q01DX009 (ip), vehicle: saline with Tween-80 99 % of control | [4] 106 % of control | [5] 97 % of control | [14] 101 % of control

CC1C[N-]1.CC1C[N-]1.[Cl][Pt+2][Cl] (stereo unspecified)
inactive: [10] 100 % of control | [6] 111 % of control | [1] 101 % of control | [7] 100 % of control
